Assay results taken from patent US20080249042A1, “All-Trans-Retinol: All-Trans-13,14-Dihydroretinol Saturase and Methods of Its Use” (UNIVERSITY OF WASHINGTON, priority 2004, published 2008).

Key:
mouse RXR-α = target: T1, mouse RXR-α (Mus musculus, UniProt P28700); assay: RXRE (DR1) activation assay, HEK-293S cells with pRXRE-BLUE and RXR-α; assay type: cell-based; conditions: cotransfected with mouse RXR-α, 48 h
T1 construct: The RXR-α open reading frame was then subcloned into the pcDNA3.1 Directional TOPO vector; expressed in transfected cells; host or cells: N-acetylglucosaminyltransferase I-negative HEK-293S
T1 sequence (P28700 1-467): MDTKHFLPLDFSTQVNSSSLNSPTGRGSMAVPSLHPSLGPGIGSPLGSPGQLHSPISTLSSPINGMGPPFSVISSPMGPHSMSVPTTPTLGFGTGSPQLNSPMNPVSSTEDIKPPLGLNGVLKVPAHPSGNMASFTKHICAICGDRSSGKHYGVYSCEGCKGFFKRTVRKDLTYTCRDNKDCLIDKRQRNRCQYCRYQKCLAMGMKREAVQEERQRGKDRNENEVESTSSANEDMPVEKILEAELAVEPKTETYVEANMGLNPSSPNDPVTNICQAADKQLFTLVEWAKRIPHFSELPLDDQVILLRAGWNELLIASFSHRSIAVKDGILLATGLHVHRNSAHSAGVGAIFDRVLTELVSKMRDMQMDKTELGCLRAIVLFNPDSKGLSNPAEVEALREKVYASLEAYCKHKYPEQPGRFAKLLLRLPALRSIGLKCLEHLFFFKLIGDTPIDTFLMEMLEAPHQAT

[1] = Liver retinoids of Lrat-/- mice 3 h after gavage with all-trans-RA; assay type: in vivo, mouse; conditions: 3 h post-gavage
Source text: Metabolism of Retinoids in Vivo. All animal experiments employed procedures approved by the University of Washington and conformed to recommendations of the American Veterinary Medical Association Panel on Euthanasia and recommendations of the Association of Research for Vision and Ophthalmology. Animals were maintained on a 12-h light and 12-h dark cycle. All manipulations were done under dim red or infrared light (>560 nm). Most experiments used 6-12-week-old mice. Lrat−/− mice were genotyped as described previously. Batten, et al. J. Biol. Chem. 279:10422-10432, 2004. Animals were maintained on a control chow diet up to 1 h prior to oral gavage. The appropriate amount of all-trans-ROL palmitate, all-trans-DROL, or all-trans-RA was dissolved in vegetable oil and administered by oral gavage 3 h prior to analysis.
Analysis of Retinoids. Liver (1 g) from retinoid gavaged or naive mice was homogenized in 2 ml of 137 mM NaCl, 2.7 mM KCl, and 10 mM sodium phosphate (pH 7.4) for 30 s using a Polytron homogenizer. 10 μl of 5 M NaOH was added to 3 ml of the ethanolic extract, and the nonpolar retinoids were extracted using 5 ml of hexane. The extraction was repeated, and the organic phases were combined, dried under vacuum, resuspended in hexane, and examined by normal phase HPLC using a normal phase column (Beckman Ultrasphere Si 5μ, 4.6×250 mm). […] The HPLC elution conditions were […], 100% buffer A for 40 min, 100% buffer B for 10 min, and 10 min equilibration in buffer A. The elution profiles of RA and DRA were monitored using an online diode array detector set at 350 and 290 nm, respectively. […] The measured area of absorbance was converted to picomoles based on a calibration of the HPLC columns using a known amount of all-trans-RA or all-trans-ROL (Sigma) and all-trans-DROL or all-trans-DRA (synthetic standards). The extraction efficiency was monitored by spiking a tissue sample with [^3H]RA (PerkinElmer Life Sciences) and monitoring the radioactivity recovered from the HPLC column. […]

Compound: CC1=C(/C=C/C(C)=C/C=C/C(C)CC(=O)O)C(C)(C)CCC1 (stereo not drawn) [all-trans-DRA, all-trans-13,14-dihydroretinoic acid]
- Activation of RXR-mediated transcription (DR1 elements) (mouse RXR-α): very weak RXR activator
- Formation in liver after gavage with all-trans-RA [1]: no evidence
